Reference: patent US20250017979A1, “METHODS AND COMPOSITIONS FOR IMPROVING IN VIVO SURVIVAL OF MIDBRAIN DOPAMINE NEURONS” (MEMORIAL SLOAN-KETTERING CANCER CENTER, priority 2022, published 2025)

Legend:
rodent GSK3β homologs = conditions: cited from earlier work
[1] = system: NURR1::H2B-GFP sorted neurons; test: TNFα / adalimumab treatment of day 25 NURR1::H2B-GFP sorted dopamine neurons in vitro (immunofluorescence, western blot, qRT-PCR); format: cell-based, human; conditions: co-treatment with TNFα and adalimumab (10 μg/ml), 24 hours
Protocol: hESC differentiation toward DA neurons. Midbrain dopaminergic neuron differentiation was performed using H9 hESCs, which include Nurr1::GFP. hESCs were grown on VTN-N (Thermo Fisher Scientific)-coated 6-well plates in E8-essential medium. Cells were maintained at 37° C., 5% CO2. hESCs were differentiated with an optimized protocol from a previously reported study (Kim et al., 2021, Cell Stem Cell February 4; 28 (2): 343-355.c5; Riessland et al., 2019, Cell Stem Cell. October 3; 25 (4): 514-530.c8). At day 25 of differentiation from hPSCs iCas9/NURR1::GFP hPSC lines containing sgRNA-pool libraries and sgRNA for dTomato and p53 hPSCs, GFP and dTomato expressed dopamine neurons were sorted using flow cytometry associated cell sorting (FACS). […] TNF-α neutralizing antibody was employed either to co-injection (1 mg/ml) or in vitro cultured dopamine neuron (10 μg/ml).

[2] = system: amphetamine-induced rotation behaviors; test: D-amphetamine induced rotation assay in unilateral 6-OHDA lesioned PD mouse model after grafting; format: in vivo, NSG mice
Protocol: (§1) 6-OHDA mouse model. Briefly, adult female and male NSG mice (6-12 weeks) were anesthetized with 1%-2% isoflurane mixed in oxygen. 1 μL 6-OHDA (3 mg/ml, in saline with 1% ascorbic acid) was directly injected into the right side of substantial nigra (anterior-posterior [AP]=−2.9 mm, lateral [ML]=1.1 mm, vertical [DV]=4.5 mm, from dura) with rate of 0.5-1 μL per minute to generate unilateral toxin Parkinsonian mouse model. Animals with amphetamine-induced rotation at >6 rotations per min were selected for cell transplantation 4 weeks after 6-OHDA-lesion surgery. Animals were randomly grouped and transplanted with CD sorted neurons vs. CD sorted neurons+adalimumab vs. PBS (sham surgery control).
d-amphetamine induced rotation behavior assays. Amphetamine-induced rotation tests were performed twice before transplantation, and 1, 2, 3, 4, 5, 6 months after transplantation. The mice were injected intraperitoneally with a d-amphetamine in saline (Sigma, 10 mg/kg). After 10 minutes, the rotation

[3] = system: CD marker sorted dopamine neurons; test: 1-month survival of CD49e-low/CD184-high sorted dopamine neuron grafts in striatum of NSG mice, co-injection, stereology; format: in vivo
Protocol: hESC differentiation toward DA neurons. Midbrain dopaminergic neuron differentiation was performed using H9 hESCs, which include Nurr1::GFP. hESCs were grown on VTN-N (Thermo Fisher Scientific)-coated 6-well plates in E8-essential medium. Cells were maintained at 37° C., 5% CO2. hESCs were differentiated with an optimized protocol from a previously reported study (Kim et al., 2021, Cell Stem Cell February 4; 28 (2): 343-355.c5; Riessland et al., 2019, Cell Stem Cell. October 3; 25 (4): 514-530.c8). At day 25 of differentiation from hPSCs iCas9/NURR1::GFP hPSC lines containing sgRNA-pool libraries and sgRNA for dTomato and p53 hPSCs, GFP and dTomato expressed dopamine neurons were sorted using flow cytometry associated cell sorting (FACS). The sorted hPSCs were either injected into mice or cultured for subsequent experiments until use. Furthermore, double sorting approach with CD49e-low and CD184-high was applied to enrich post-mitotic dopamine neuron at day 25 differentiation derived from hPSC using FACS, and sorted cells were used for transplantation and in vitro culture. TNF-α neutralizing antibody was employed either to co-injection (1 mg/ml) or in vitro cultured dopamine neuron (10 μg/ml).
Intracranial transplantation. hESCs-derived DA neurons that were sorted based on either NURR1::H2B-GFP or CD49e low and CD184 high were resuspended in 100,000+ cells/μL in neurobasal medium with 200 mM L-glutamine and 100 mM ascorbic acid (AA) transplantation medium (without human albumin or kedbumin 25%). […]
Stereological analysis. For short-term survival studies, unbiased stercological counts of NURR1::H2B-GFP DA neurons within the striatum (AP+0.5, ML+/−1.8, DV −3.4 to −3.3 from dura) were performed using stereological principles and analyzed with StereoInvestigator software (Microbrightfield, Williston, VT, USA), as previously described. […] For each tissue section analyzed, section thickness was assessed in each sampling site and guard zones of 1 μm were used at the top and bottom of each section. […]

[4] = system: CD marker sorted dopamine neurons; test: Histology and stereology of dopamine neuron grafts at 6 months in 6-OHDA mice; format: in vivo, NSG mice
Protocol: as §1
Immunohistochemistry. Histology on tissues from mice was performed on frozen sections from xenografts. Mice were anesthetized with pentobarbital and transcardically perfused using heparinized (10 U/mL) PBS (pH 7.4), followed by 4% paraformaldehyde in PBS. The liquid is administered using peristaltic pump to control the rate of the solution delivery to the system. Tissues were post-fixed in ice cold 4% paraformaldehyde for 18 hours sharp and transferred to 30% sucrose until the tissue sink (typically 3-6 days post-), followed by snap freezing in O.C.T (Fisher Scientific, Pittsburgh, PA) or Neg-50 (Thermo Scientific). Brain tissues are all sectioned in 30 μm thick coronal sections using a cryostat and mounted onto a Superfrost plus microscope slides (Fisher Scientific). All the slides are stored at −80° C. for long-term until use. To process for immunolabeling, tissues are washed twice with 1×PBS, followed by permeabilization in 0.5% Triton X-100 in PBS for 10 minutes. Living cells in culture were directly fixed in 4% paraformaldehyde for 18 min, followed by 10 min permeabilization in 0.5% Triton X-100 in PBS. For labeling, cells or tissue sections were immunostained with primary antibodies of interest in 2% BSA in 0.25% Triton X-100 in PBS at 4° C. overnight. Next day appropriate Alexa Fluor secondary antibodies are conjugated at room temperature for 1 hr at a dilution of 1:1,000. Nuclei were counterstained by DAPI.
Stereological analysis. For short-term survival studies, unbiased stercological counts of NURR1::H2B-GFP DA neurons within the striatum (AP+0.5, ML+/−1.8, DV −3.4 to −3.3 from dura) were performed using stereological principles and analyzed with StereoInvestigator software (Microbrightfield, Williston, VT, USA), as previously described. […] For each tissue section analyzed, section thickness was assessed in each sampling site and guard zones of 1 μm were used at the top and bottom of each section. […] For analysis, at least 2-8 sections were evaluated for analysis. […]

[5] = 6 months old graft, TH+ population
[6] = 6 months post transplantation, vs PBS co-injection

Molecule | IC50 values against rodent GSK3β homologs (rodent GSK3β homologs) | TNFα-induced inductions of p53 and p53 downstream genes (p21, PUMA) [1] | functional recovery of amphetamine-induced rotation ([2]; 6 months post grafting, CD sorted neurons with or without adalimumab) | time course and completeness of functional rescue vs CD sorted neurons alone ([2]; adalimumab co-injected mDA neurons, 1-6 months) | Stereological counts of NURR1::GFP+ cells ([3]; 1 month post grafting, mean and S.E.M, n=5, p=0.01 vs PBS) | volume of the graft ([3]; 1 month post grafting, per 100,000 cells, mean, n=5, p=0.0085) [mm^3] | survival of CD marker sorted dopamine neurons in vivo post-transplantation ([3]; co-injection (1 mg/ml), vs PBS) | fraction of CALB1 expressing A10 dopamine neuron subtype [4, 5] | proportion of ALDH1A1+ A9 mDA neuron subtype [4, 5] | overall graft size [4, 6] | total numbers of surviving dopamine neurons (TH) [4, 6]
Cc1c[nH]c(-c2cnc(NCCNc3ccc(C#N)cn3)nc2-c2ccc(Cl)cc2Cl)n1 [CHIR99021, 6-(2-(4-(2,4-dichlorophenyl)-5-(4-methyl-1H-imidazol-2-yl)pyrimidin-2-ylamino)ethylamino) nicotinonitrile] | nanomolar | – | – | – | – | – | – | – | – | – | –
adalimumab | – | abolished | Robust functional recovery | trend towards an earlier and more complete functional rescue | 12,423 (mean)+1,859 (S.E.M) per 100,000 cells injected | 0.1175 | significantly improved | without affecting | significant increase | significantly increased | significantly increased
